The text below walks through data of US8614242B2, “1-(heterocyclic carbonyl)-2-substituted pyrrolidines” (Bayer Intellectual Property GmbH, priority 2010, dated 2013).

Series [1] in a line: logP by HPLC on reversed-phase column (EEC Directive 79/831 Annex V.A8). The format is physicochemical. As to conditions: HPLC on reversed-phase column (C 18), 40° C., 0.1% aqueous formic acid and acetonitrile, linear gradient 10% to 90% acetonitrile. The protocol: In table 1, the logP values were determined in accordance with EEC Directive 79/831 Annex V.A8 by HPLC (High Performance Liquid Chromatography) on a reversed-phase column (C 18), using the method described below: Temperature: 40° C.; Mobile phases: 0.1% aqueous formic acid and acetonitrile; linear gradient from 10% acetonitrile to 90% acetonitrile. Calibration was carried out using unbranched alkan-2-ones (comprising 3 to 16 carbon atoms) with known logP values (determination of the logP values by the retention times using linear interpolation between two successive alkanones). lambda-max-values were determined using UV-spectra from 200 nm to 400 nm and the peak values of the chromatographic signals.

In series [2] the test system is Sphaerotheca fuliginea. The experiment in a line: In vivo preventive test on Sphaerotheca fuliginea (cucumber). The note with it: 500 ppm of active ingredient, evaluated 7 days after inoculation.
The test system of series [3] is Alternaria solani. The experiment in a line: In vivo preventive test on Alternaria solani (tomato). The note with it: evaluated 7 days after inoculation. The protocol:
The plants remain for one day in an incubation cabinet at approximately 22° C. and a relative atmospheric humidity of 100%. Then the plants are placed in an incubation cabinet at approximately 20° C. and a relative atmospheric humidity of 96%.

Series [4] has as its system Pyrenophora teres. The experiment in a line: In vivo preventive test on Pyrenophora teres (barley). As to conditions: 500 ppm of active ingredient, evaluated 7-9 days after inoculation. The protocol: The plants remain for 48 hours in an incubation cabinet at 22° C. and a relative atmospheric humidity of 100%.
In series [5] the test system is Venturia inaequalis. The series can be described thus: In vivo preventive test on Venturia inaequalis (apple scab). The note with it: 100 ppm of active ingredient, evaluated 10 days after inoculation. The protocol: After the spray coating has dried on, the plants are inoculated with an aqueous conidia suspension of the causal agent of apple scab (Venturia inaequalis) and then remain for 1 day in an incubation cabinet at approximately 20° C. and a relative atmospheric humidity of 100%.

Series [6] relates to Septoria tritici. The experiment in a line: In vivo preventive test on Septoria tritici (wheat). As to conditions: 500 ppm of active ingredient, evaluated 21 days after inoculation. The source says:
After the spray coating has been dried, the plants are sprayed with a spore suspension of Septoria tritici.

For series [7], the system named is Blumeria graminis f.sp. hordei. The experiment in a line: In vivo preventive test on Blumeria graminis (barley). The note with it: 500 ppm of active ingredient, evaluated 7 days after inoculation. From the text: After the spray coating has been dried, the plants are dusted with spores of Blumeria graminis f.sp. hordei.
Series [8] relates to Fusarium nivale (var. majus). The experiment in a line: In vivo preventive test on Fusarium nivale (wheat). The note with it: 500 ppm of active ingredient, evaluated 5 days after inoculation. From the text: After the spray coating has been dried, the plants are slightly injured by using a sandblast and afterwards they are sprayed with a conidia suspension of Fusarium nivale (var. majus).

Series [9] has as its system Leptosphaeria nodorum. The experiment in a line: In vivo preventive test on Leptosphaeria nodorum (wheat). As to conditions: evaluated 8 days after inoculation. From the text:
After the spray coating has been dried, the plants are sprayed with a spore suspension of Leptosphaeria nodorum.

Series [10] concerns Puccinia triticina. The series can be described thus: In vivo preventive test on Puccinia triticina (wheat). The note with it: 500 ppm of active ingredient, evaluated 8 days after inoculation. The protocol:
In Vivo Preventive Test on Puccinia Triticina (Wheat)
Solvent: 49 parts by weight of N,N-dimethylacetamide
Emulsifier: 1 part by weight of alkylaryl polyglycol ether
After the spray coating has been dried, the plants are sprayed with a spore suspension of Puccinia triticina.
The test is evaluated 8 days after the inoculation.

[11] abbreviates: 100 ppm of active ingredient, listed as 1.110.
Setting [12] is: 100 ppm of active ingredient, listed as 1.110 from WO-2009/153191.

The term logP denotes a log measure of how a compound divides between an organic and an aqueous phase. In the case of `Cn1nc(C(F)F)c(C(=O)N2CCCC2Cc2ccc(Cl)cc2)c1F` (racemic) [Example 65], the logP in series [1] was found to be 3.29. Also, the Efficacy in [2] was 95%; in [3] (500 ppm of active ingredient) it was 94%; in series [4], 100%; in series [5], 100%; in series [6] it was 100%; in series [7], 100%. Further, the Efficacy in series [8] and in series [9] (500 ppm of active ingredient) was 100% in each case.
Turning to `Cn1nc(C(F)F)c(C(=O)N2CCCC2Cc2cccc(Cl)c2Cl)c1F` (racemic) [Example 69], the logP in [1] is 3.64. Moreover, the Efficacy in series [2] is 88%; in series [3] (500 ppm of active ingredient) it was 100%; in [4], 100%.
Compound `Cn1nc(C(F)F)c(C(=O)N2CCCC2Cc2c(Cl)cccc2Cl)c1F` (racemic) [Example 76] showed a logP in series [1] of 3.31. Besides, the Efficacy in series [2] is given as 95%; in series [4] it was 100%; in series [6], 83%; in series [7] it was 100%; in series [8], 100%.
In the case of `Cn1nc(C(F)F)c(C(=S)N2CCCC2Cc2c(Cl)cccc2Cl)c1F` (racemic) [Example 77], the log partition coefficient (logP) in series [1] was 4.06. In addition, the Efficacy in series [2] is 95%; in series [3] (500 ppm of active ingredient), 100%; in [4], 100%.
In series [1], `Cn1nc(C(F)F)c(C(=O)N2CCCC2Cc2ccc(Br)cc2)c1F` (racemic) [Example 80] showed a log partition coefficient (logP) of 3.39. Moreover, the Efficacy in series [2] is 89%; in series [3] (500 ppm of active ingredient) it was 100%; in series [4] it was 100%.
As to `Cn1cc(C(=O)N2CCC[C@H]2COc2c(Cl)cc(Cl)cc2Cl)c(C(F)F)n1` [Example 1.006 from WO-2009/153191, [3-(difluoromethyl)-1-methyl-1H-pyrazol-4-yl]{(S)-2-[(2,4,6-trichlorophenoxy)methyl]pyrrolidin-1-yl}methanone, reference compound], the Efficacy entry in series [9] (250 ppm of active ingredient, listed as 1.006) is given as “less than 50%”; in series [9] (250 ppm of active ingredient, listed as 1.006 from WO-2009/153191), 43%; in [9] (500 ppm of active ingredient, listed as 1.006), “at least 70%”; in series [9] (500 ppm of active ingredient, listed as 1.006 from WO-2009/153191) it was 71%.
Consider `Cn1cc(C(=O)N2CCCC2Cc2c(Cl)cccc2Cl)c(C(F)F)n1` (stereo not drawn) [Example 1.110 from WO-2009/153191, [2-(2,6-dichlorobenzyl)pyrrolidin-1-yl][3-(difluoromethyl)-1-methyl-1H-pyrazol-4-yl]methanone, reference compound], for which the Efficacy entry in series [3] (setting [11]) was “less than 30%”; in series [3] (setting [12]), 30%; in [3] (500 ppm of active ingredient), 95%; in series [9] (setting [11]), “no protection”; in series [9] (setting [12]), 0%; in series [9] (500 ppm of active ingredient), 44%.
`Cc1ccccc1C1CCCN1C(=O)c1c(C(F)F)nn(C)c1F` (stereo not drawn) [Example 2]: in [1], the logP amounted to 2.75. Further, the results for the Efficacy in series [2], in series [3] (500 ppm of active ingredient) and in series [4] were 95%, 90% and 100%, respectively.
The matching figures for `Cn1nc(C(F)F)c(C(=O)N2CCCC2c2ccccc2Cl)c1F` (stereo not drawn) [Example 6]: 2.90, 90%, 100% and 100%.
`Cn1nc(C(F)F)c(C(=O)N2CCCC2c2cc(F)cc(F)c2)c1F` (stereo not drawn) [Example 10] showed a lipophilicity (logP) in series [1] of 2.70. In addition, the values for the Efficacy in [2], in [3] (500 ppm of active ingredient) and in series [4] were 85%, 95% and 100%, respectively.
The matching figures for `Cn1nc(C(F)F)c(C(=O)N2CCCC2c2ccc(C(C)(C)C)cc2)c1F` (stereo not drawn) [Example 13]: 3.74, 93%, 100% and 100%.
Compound `Cn1nc(C(F)F)c(C(=O)N2CCCC2c2cccc(C(F)(F)F)c2)c1Cl` (stereo not drawn) [Example 16] came in with a logP in series [1] of 3.21. Moreover, the Efficacy came out at 86% in series [2], 100% in series [3] (500 ppm of active ingredient) and 100% in series [4].
`Cn1nc(C(F)F)c(C(=S)N2CCCC2c2cccc(C(F)(F)F)c2)c1F` (stereo not drawn) [Example 18]: the logP in [1] is on record as 3.59. Also, the values for the Efficacy in series [2], in [3] (500 ppm of active ingredient) and in series [4] were 100%, 90% and 100%, respectively.
As to `Cn1nc(C(F)F)c(C(=O)N2CCCC2c2ccc(C(F)(F)F)cc2)c1F` (stereo not drawn) [Example 21], the logP in [1] was determined as 3.13. Moreover, the results for the Efficacy in [2], in series [3] (500 ppm of active ingredient) and in series [4] were 81%, 90% and 95%, respectively.
Taken in the same sequence, the figures for `Cn1nc(C(F)F)c(C(=O)N2CCCC2c2ccc(Cl)cc2Cl)c1F` (stereo not drawn) [Example 22] were 3.44, 91%, 100% and 95%.
With `Cn1nc(C(F)F)c(C(=S)N2CCCC2c2ccc(Cl)cc2Cl)c1F` (stereo not drawn) [Example 24], the logP in series [1] came out at 4.09. In addition, the Efficacy in [2] stood at 95%; in series [3] (500 ppm of active ingredient), 90%; in series [4], 100%.
Taken in the same sequence, the figures for `Cn1nc(C(F)F)c(C(=O)N2CCCC2c2ccc(Cl)c(Cl)c2)c1F` (stereo not drawn) [Example 26] were 3.23, 95%, 95% and 100%.
The matching figures for `Cn1nc(C(F)F)c(C(=O)N2CCCC2c2cc(Cl)cc(Cl)c2)c1Cl` (stereo not drawn) [Example 27]: 3.50, 70%, 95% and 95%.
The matching figures for `Cn1nc(C(F)F)c(C(=O)N2CCCC2c2cc(Cl)cc(Cl)c2)c1F` (stereo not drawn) [Example 28]: 3.35, 100%, 95% and 100%.
Regarding `Cn1nc(C(F)F)c(C(=O)N2CCCC2c2ccccc2Br)c1F` (stereo not drawn) [Example 32], in series [1], the lipophilicity (logP) is reported as 2.98. In addition, the figures for the Efficacy in series [2], in series [3] (500 ppm of active ingredient) and in series [4] were 95%, 95% and 100%, respectively.
As for `Cn1nc(C(F)F)c(C(=O)N2CCCC2c2cccc(Br)c2)c1F` (stereo not drawn) [Example 34], in series [1], the log partition coefficient (logP) came out at 2.92. For the same compound, the Efficacy was found to be 95% in [2], 95% in series [3] (500 ppm of active ingredient) and 100% in [4].
Compound `Cn1nc(C(F)F)c(C(=O)N2CCCC2c2cc(C(F)(F)F)cc(C(F)(F)F)c2)c1F` (stereo not drawn) [Example 39] gave a lipophilicity (logP) in [1] of 3.63. The values for the Efficacy in [2], in series [3] (500 ppm of active ingredient) and in series [4] were 100%, 95% and 100%, respectively.
In series [1], `Cn1nc(C(F)F)c(C(=O)N2CCCC2Cc2ccc(F)cc2)c1F` (stereo not drawn) [Example 59] had a logP of 2.90. Besides, the Efficacy in series [2] is 93%; in [4], 100%; in series [6] it was 90%; in series [7] it was 100%; in [8], 100%; in series [9] (500 ppm of active ingredient) it was 93%. For the same compound, the Efficacy in series [10] worked out at 88%.
In [1], `Cn1nc(C(F)F)c(C(=O)N2CCCC2Cc2ccccc2Cl)c1F` (stereo not drawn) [Example 60] came in with a logP of 3.06. For the same compound, the Efficacy is 95% in [2]; 100% in series [3] (500 ppm of active ingredient); 100% in [4]; 100% in series [5]; 100% in series [7]; 100% in series [8]. The Efficacy in [9] (500 ppm of active ingredient) and in [10] was 100% throughout.
